Assay results: ChEMBL document CHEMBL3797055, “Glabridin-chalcone hybrid molecules: drug resistance reversal agent against clinical isolates of methicillin-resistant Staphylococcus aureus” (Medchemcomm, 2016)
≈ marks a conversion by molar mass, not a printed value.

Legend:
Type in all cases: functional
[1] = system: Staphylococcus aureus; assay: Antibacterial activity against clinical isolates of methicillin-resistant Staphylococcus aureus ST2071 by checkerboard assay in presence of norfloxacin
[2] = system: Staphylococcus aureus; assay: Antibacterial activity against clinical isolates of methicillin-resistant Staphylococcus aureus P4629 by broth microdilution assay
[3] = system: Staphylococcus aureus; assay: Antibacterial activity against clinical isolates of methicillin-resistant Staphylococcus aureus P4423 by checkerboard assay in presence of norfloxacin
[4] = system: Staphylococcus aureus; assay: Antibacterial activity against clinical isolates of methicillin-resistant Staphylococcus aureus ST10342 by broth microdilution assay
[5] = system: Staphylococcus aureus; assay: Ratio of MIC for clinical isolates of methicillin-resistant Staphylococcus aureus P4650 to MIC for clinical isolates of methicillin-resistant Staphylococcus aureus P4650 in presence of norfloxacin
[6] = system: Staphylococcus aureus; assay: Potentiation of norfloxacin-induced antibacterial activity against clinical isolates of methicillin-resistant Staphylococcus aureus P4650 assessed as reduction in norfloxacin MIC by checkerboard assay relative to control
[7] = system: Staphylococcus aureus; assay: Bactericidal activity against clinical isolates of methicillin-resistant Staphylococcus aureus ST2071 assessed as reduction in viability at MIC after 24 hrs by time kill kinetic analysis relative to control
[8] = system: Staphylococcus aureus; assay: Potentiation of norfloxacin-induced antibacterial activity against clinical isolates of methicillin-resistant Staphylococcus aureus ST2071 assessed as norfloxacin MIC by checkerboard assay
[9] = system: Staphylococcus aureus; assay: Antibacterial activity against clinical isolates of methicillin-resistant Staphylococcus aureus P4423 by broth microdilution assay
[10] = system: Staphylococcus aureus; assay: Antibacterial activity against clinical isolates of methicillin-resistant Staphylococcus aureus ST2071 by broth microdilution assay
[11] = system: Staphylococcus aureus; assay: Antibacterial activity against Staphylococcus aureus MTCC 96 by broth microdilution assay
[12] = system: Staphylococcus aureus; assay: Potentiation of norfloxacin-induced antibacterial activity against clinical isolates of methicillin-resistant Staphylococcus aureus ST10760 assessed as norfloxacin MIC by checkerboard assay
[13] = system: Staphylococcus aureus; assay: Potentiation of norfloxacin-induced antibacterial activity against clinical isolates of methicillin-resistant Staphylococcus aureus P4629 assessed as norfloxacin MIC by checkerboard assay
[14] = system: Staphylococcus aureus; assay: Ratio of MIC for clinical isolates of methicillin-resistant Staphylococcus aureus P4629 to MIC for clinical isolates of methicillin-resistant Staphylococcus aureus P4629 in presence of norfloxacin
[15] = system: Staphylococcus aureus; assay: Potentiation of norfloxacin-induced antibacterial activity against clinical isolates of methicillin-resistant Staphylococcus aureus P4423 assessed as norfloxacin MIC by checkerboard assay
[16] = system: Staphylococcus aureus; assay: Potentiation of norfloxacin-induced antibacterial activity against clinical isolates of methicillin-resistant Staphylococcus aureus ST2071 assessed as reduction in norfloxacin MIC by checkerboard assay relative to control
[17] = system: Staphylococcus aureus; assay: Antibacterial activity against clinical isolates of methicillin-resistant Staphylococcus aureus ST10760 by checkerboard assay in presence of norfloxacin
[18] = system: Staphylococcus aureus; assay: Potentiation of norfloxacin-induced antibacterial activity against clinical isolates of methicillin-resistant Staphylococcus aureus ST10760 assessed as reduction in norfloxacin MIC by checkerboard assay relative to control
[19] = system: Staphylococcus aureus; assay: Antibacterial activity against clinical isolates of methicillin-resistant Staphylococcus aureus P4650 by broth microdilution assay
[20] = system: Staphylococcus aureus; assay: Potentiation of norfloxacin-induced antibacterial activity against clinical isolates of methicillin-resistant Staphylococcus aureus ST10342 assessed as norfloxacin MIC by checkerboard assay
[21] = system: Staphylococcus aureus; assay: Potentiation of norfloxacin-induced antibacterial activity against clinical isolates of methicillin-resistant Staphylococcus aureus P4423 assessed as reduction in norfloxacin MIC by checkerboard assay relative to control
[22] = system: Staphylococcus aureus; assay: Antibacterial activity against clinical isolates of methicillin-resistant Staphylococcus aureus P4629 by checkerboard assay in presence of norfloxacin
[23] = system: Staphylococcus aureus; assay: Potentiation of norfloxacin-induced antibacterial activity against clinical isolates of methicillin-resistant Staphylococcus aureus P4650 assessed as norfloxacin MIC by checkerboard assay
[24] = system: Staphylococcus aureus; assay: Potentiation of norfloxacin-induced antibacterial activity against clinical isolates of methicillin-resistant Staphylococcus aureus ST10342 assessed as reduction in norfloxacin MIC by checkerboard assay relative to control
[25] = system: Staphylococcus aureus; assay: Potentiation of norfloxacin-induced antibacterial activity against clinical isolates of methicillin-resistant Staphylococcus aureus P4629 assessed as reduction in norfloxacin MIC by checkerboard assay relative to control
[26] = system: Staphylococcus aureus; assay: Antibacterial activity against clinical isolates of methicillin-resistant Staphylococcus aureus ST10342 by checkerboard assay in presence of norfloxacin
[27] = system: Staphylococcus aureus; assay: Antibacterial activity against clinical isolates of methicillin-resistant Staphylococcus aureus P4650 by checkerboard assay in presence of norfloxacin
[28] = system: Staphylococcus aureus; assay: Antibacterial activity against clinical isolates of methicillin-resistant Staphylococcus aureus ST10760 by broth microdilution assay
[29] = system: Staphylococcus aureus; assay: Bactericidal activity against clinical isolates of methicillin-resistant Staphylococcus aureus ST2071 assessed as reduction in viability at 0.5 MIC after 24 hrs by time kill kinetic analysis relative to control
[30] = system: Staphylococcus aureus; assay: Ratio of MIC for clinical isolates of methicillin-resistant Staphylococcus aureus ST2071 to MIC for clinical isolates of methicillin-resistant Staphylococcus aureus ST2071 in presence of norfloxacin
[31] = system: Staphylococcus aureus; assay: Ratio of MIC for clinical isolates of methicillin-resistant Staphylococcus aureus ST10760 to MIC for clinical isolates of methicillin-resistant Staphylococcus aureus ST10760 in presence of norfloxacin
[32] = system: Staphylococcus aureus; assay: Bactericidal activity against clinical isolates of methicillin-resistant Staphylococcus aureus ST2071 assessed as reduction in viability at 0.5 MIC after 24 hrs by time kill kinetic analysis in presence of norfloxacin relative to control
[33] = system: Staphylococcus aureus; assay: Ratio of MIC for clinical isolates of methicillin-resistant Staphylococcus aureus P4423 to MIC for clinical isolates of methicillin-resistant Staphylococcus aureus P4423 in presence of norfloxacin

CC1(C)C=Cc2c(ccc3c2OC[C@@H](c2ccc(O)cc2O)C3)O1 [GLABRIDIN]
fractional inhibitory concentration index (FICI) [1]: 0.75
MIC [2]: 12.5 µg/mL (≈ 38.5 µM)
fractional inhibitory concentration index (FICI) [3]: 1
MIC [4]: 12.5 µg/mL (≈ 38.5 µM)
Ratio [5]: 4
fold change (FC) [6]: 4
fold change (FC) [7]: 2
MIC [8]: 250 µg/mL
MIC [9]: 12.5 µg/mL (≈ 38.5 µM)
MIC [10]: 12.5 µg/mL (≈ 38.5 µM)
MIC [11]: 3.12 µg/mL (≈ 9.63 µM)
MIC [12]: 125 µg/mL
MIC [13]: 125 µg/mL
Ratio [14]: 4
MIC [15]: 125 µg/mL
fold change (FC) [16]: 2
fractional inhibitory concentration index (FICI) [17]: 0.75
fold change (FC) [18]: 4
MIC [19]: 12.5 µg/mL (≈ 38.5 µM)
MIC [20]: 125 µg/mL
fold change (FC) [21]: 2
fractional inhibitory concentration index (FICI) [22]: 0.5
MIC [23]: 62.5 µg/mL
fold change (FC) [24]: 2
fold change (FC) [25]: 4
fractional inhibitory concentration index (FICI) [26]: 1
fractional inhibitory concentration index (FICI) [27]: 0.5
MIC [28]: 12.5 µg/mL (≈ 38.5 µM)
fold change (FC) [29]: <=1.52

COc1cc(OC)c([C@@H]2COc3c(cc(/C=C/C(=O)c4cc(OC)c(OC)c(OC)c4)c4c3C=CC(C)(C)O4)C2)cc1/C=C/C(=O)c1cc(OC)c(OC)c(OC)c1
MIC [2]: 100 µg/mL (≈ 126 µM)
MIC [4]: 100 µg/mL (≈ 126 µM)
MIC [9]: 100 µg/mL (≈ 126 µM)
MIC [10]: 100 µg/mL (≈ 126 µM)
MIC [11]: 50 µg/mL (≈ 63.1 µM)
MIC [19]: 100 µg/mL (≈ 126 µM)
MIC [28]: 100 µg/mL (≈ 126 µM)

COc1cc(OC)c([C@@H]2COc3c(cc(/C=C/C(=O)c4ccc(OC)c(OC)c4)c4c3C=CC(C)(C)O4)C2)cc1/C=C/C(=O)c1ccc(OC)c(OC)c1
fractional inhibitory concentration index (FICI) [1]: 0.5
MIC [2]: 12.5 µg/mL (≈ 17.1 µM)
fractional inhibitory concentration index (FICI) [3]: 0.75
MIC [4]: 12.5 µg/mL (≈ 17.1 µM)
Ratio [30]: 4
fold change (FC) [6]: 4
fold change (FC) [7]: 2
MIC [8]: 125 µg/mL
MIC [9]: 25 µg/mL (≈ 34.1 µM)
MIC [10]: 25 µg/mL (≈ 34.1 µM)
MIC [11]: 12.5 µg/mL (≈ 17.1 µM)
MIC [12]: 62.5 µg/mL
MIC [13]: 125 µg/mL
Ratio [31]: 4
MIC [15]: 62.5 µg/mL
fold change (FC) [32]: <=3
fold change (FC) [16]: 4
fractional inhibitory concentration index (FICI) [17]: 0.375
fold change (FC) [18]: 8
MIC [19]: 12.5 µg/mL (≈ 17.1 µM)
MIC [20]: 62.5 µg/mL
fold change (FC) [21]: 4
fractional inhibitory concentration index (FICI) [22]: 0.5
MIC [23]: 62.5 µg/mL
fold change (FC) [24]: 4
fold change (FC) [25]: 4
fractional inhibitory concentration index (FICI) [26]: 0.75
fractional inhibitory concentration index (FICI) [27]: 0.75
Ratio [33]: 4
MIC [28]: 25 µg/mL (≈ 34.1 µM)
fold change (FC) [29]: <=1.52

COc1cc(OC)c([C@@H]2COc3c(ccc4c3C=CC(C)(C)O4)C2)cc1C=O
MIC [2]: > 100 µg/mL
MIC [4]: > 100 µg/mL
MIC [9]: > 100 µg/mL
MIC [10]: > 100 µg/mL
MIC [11]: > 100 µg/mL
MIC [19]: > 100 µg/mL
MIC [28]: > 100 µg/mL

COc1ccc([C@@H]2COc3c(cc(/C=C/C(=O)c4ccccc4)c4c3C=CC(C)(C)O4)C2)c(OC)c1
MIC [2]: 25 µg/mL (≈ 51.8 µM)
MIC [4]: 25 µg/mL (≈ 51.8 µM)
MIC [9]: 25 µg/mL (≈ 51.8 µM)
MIC [10]: 25 µg/mL (≈ 51.8 µM)
MIC [11]: 25 µg/mL (≈ 51.8 µM)
MIC [19]: 25 µg/mL (≈ 51.8 µM)
MIC [28]: 25 µg/mL (≈ 51.8 µM)

COc1cccc(C(=O)/C=C/c2cc([C@@H]3COc4c(ccc5c4C=CC(C)(C)O5)C3)c(OC)cc2OC)c1
MIC [2]: 50 µg/mL (≈ 97.5 µM)
MIC [4]: 50 µg/mL (≈ 97.5 µM)
MIC [9]: 50 µg/mL (≈ 97.5 µM)
MIC [10]: 50 µg/mL (≈ 97.5 µM)
MIC [11]: 25 µg/mL (≈ 48.8 µM)
MIC [19]: 50 µg/mL (≈ 97.5 µM)
MIC [28]: 50 µg/mL (≈ 97.5 µM)

COc1ccc(C(=O)/C=C/c2cc3c(c4c2OC(C)(C)C=C4)OC[C@@H](c2ccc(OC)cc2OC)C3)cc1
MIC [2]: > 100 µg/mL
MIC [4]: > 100 µg/mL
MIC [9]: > 100 µg/mL
MIC [10]: > 100 µg/mL
MIC [11]: > 100 µg/mL
MIC [19]: > 100 µg/mL
MIC [28]: > 100 µg/mL

COc1ccc(C(=O)/C=C/c2cc([C@@H]3COc4c(ccc5c4C=CC(C)(C)O5)C3)c(OC)cc2OC)cc1
MIC [2]: > 100 µg/mL
MIC [4]: > 100 µg/mL
MIC [9]: > 100 µg/mL
MIC [10]: > 100 µg/mL
MIC [11]: 50 µg/mL (≈ 97.5 µM)
MIC [19]: > 100 µg/mL
MIC [28]: > 100 µg/mL

COc1cccc(C(=O)/C=C/c2cc([C@@H]3COc4c(cc(/C=C/C(=O)c5cccc(OC)c5)c5c4C=CC(C)(C)O5)C3)c(OC)cc2OC)c1
MIC [2]: > 100 µg/mL
MIC [4]: > 100 µg/mL
MIC [9]: > 100 µg/mL
MIC [10]: > 100 µg/mL
MIC [11]: > 100 µg/mL
MIC [19]: > 100 µg/mL
MIC [28]: > 100 µg/mL

COc1cc(OC)c([C@@H]2COc3c(ccc4c3C=CC(C)(C)O4)C2)cc1/C=C/C(=O)c1ccco1
MIC [2]: 25 µg/mL (≈ 52.9 µM)
MIC [4]: 25 µg/mL (≈ 52.9 µM)
MIC [9]: 25 µg/mL (≈ 52.9 µM)
MIC [10]: 25 µg/mL (≈ 52.9 µM)
MIC [11]: 25 µg/mL (≈ 52.9 µM)
MIC [19]: 25 µg/mL (≈ 52.9 µM)
MIC [28]: 25 µg/mL (≈ 52.9 µM)

COc1cc(OC)c([C@@H]2COc3c(ccc4c3C=CC(C)(C)O4)C2)cc1/C=C/C(=O)c1ccccc1
MIC [2]: 25 µg/mL (≈ 51.8 µM)
MIC [4]: 25 µg/mL (≈ 51.8 µM)
MIC [9]: 25 µg/mL (≈ 51.8 µM)
MIC [10]: 25 µg/mL (≈ 51.8 µM)
MIC [11]: 25 µg/mL (≈ 51.8 µM)
MIC [19]: 25 µg/mL (≈ 51.8 µM)
MIC [28]: 25 µg/mL (≈ 51.8 µM)
